# Assay results as given in patent US20260176285A1, “SALT OF DIOXANE QUINOLINE COMPOUND, CRYSTAL FORM THEREOF, PREPARATION METHODS THEREFOR AND USES THEREOF” (Beijing Scitech-MQ Pharmaceuticals Limited, priority 2022, published 2026).
# How the values were obtained:
# [1] = system: human lung cancer cells EBC-1; assay: Efficacy in nude mouse tumor-bearing model of human lung cancer cells EBC-1; type: in vivo, Balb/c nude mouse
# Text: In this assay, the free compound of formula (I) of the present application and different salts of the compound prepared in Examples 1, 2 and 5 were orally administered to a nude mouse tumor-bearing model of human lung cancer cells EBC-1 to study their effects on tumor growth.
# Preparation of test compounds: an appropriate weight of the test compound (including the free form of the compound of formula (I) and different salts of the compound prepared in Examples 1, 2 and 5) was weighed, completely suspended/dissolved in an appropriate volume of 0.1% sodium carboxymethyl cellulose, stirred and vortexed to give a uniform solution or suspension.
# Methods: All assays were authorized by the Animal Welfare Committee. EBC-1 in the logarithmic growth phase was inoculated into immune-deficient nude mice (BALB/c nude, female, 6-8 weeks old, weighing 18±2 g), subcutaneously on the right back, with a cell inoculation amount of 5×10^6/mouse. After the tumor grew to 150-200 mm^3, the animals were randomly divided into groups, 6 mice per group. The dose of each test substance was set at 15 mg/kg and 7.5 mg/kg (both based on the concentration of the effective formula (I) compound), and administered once a day for about 3 weeks. The test compounds were freshly prepared each day before use. During the assay, the tumor diameter was measured twice a week, and the mice were weighed at the same time. The calculation formula of tumor volume (TV) is: TV=1/2×a×b^2, where a and b represent length and width, respectively. The relative tumor volume (RTV) was calculated based on the measurement results, and the calculation formula is: RTV=Vt/V0, wherein V0 is the tumor volume measured at the time of cage grouping and dosing initiation (i.e., d0), and Vt is the tumor volume at each measurement. The evaluation index of antitumor activity is the relative tumor proliferation rate T/C (%), calculated as follows: T/C (%)=(TRTV/CRTV)×100%, TRTV: RTV of the treatment group; CRTV: RTV of the negative control group. T and C represent the average tumor volume at a certain time point in the drug administration group and the control group, respectively.
# [2] = Dynamic solubility in water, SGF, FaSSIF and FeSSIF; type: physicochemical; design: S (dynamic solubility): unit not given here; conditions: listed as Phosphate salt crystal form A-V; for S (dynamic solubility): 37° C., feed 10 mg/mL
# Method: Biological solvent Preparation • 1. […] 67.5 μL of concentrated hydrochloric acid (12 M) was added and the mixture was adjusted to a pH value of 1.8 with 1 M hydrochloric acid or 1 M NaOH solution. Purified water was added to make up to volume. • 2. Preparation of Fasted State Simulated Intestinal Fluid (FaSSIF): 0.17 g of anhydrous NaH2PO4, 0.021 g of NaOH, and 0.31 g of NaCl were weighed into a 50-mL volumetric flask. About 48 mL of purified water was added to dissolve the mixture completely, and the solution was adjusted to a pH value of 6.5 with 1 M hydrochloric acid or 1 M NaOH solution. Purified water was added to make up to volume. 0.11 g of SIF powder was added and dissolved completely. • 3. Preparation of Fed State Simulated Intestinal Fluid (FeSSIF): 0.41 mL of glacial acetic acid, 0.20 g of NaOH and 0.59 g of NaCl were weighed into a 50-mL volumetric flask. About 48 mL of purified water was added to dissolve the mixture completely, and the solution was adjusted to a pH value of 5.0 with 1 M hydrochloric acid or 1 M NaOH solution. Purified water was added to make up to volume. 0.56 g of SIF powder was added and dissolved completely.
# The dynamic solubility of the free state, the mucate salt crystal form A-I, the p-toluenesulfonate salt crystal form A-II, the di-p-toluenesulfonate salt crystal form A-IV and the phosphate salt crystal form A-V of the compound of formula (I) in water and three biological solvents was evaluated.
# The samples at each time point were centrifuged and filtered (0.45 μm PTFE filter head), and the HPLC concentration and pH value of the filtrate were determined.
# [3] = Solid-state stability evaluation (XRPD, HPLC); type: physicochemical; conditions: listed as Phosphate salt crystal form A-V
# Method: The following 6 test samples were placed under 25° C./60% RH and 40° C./75% RH conditions for 1 week, and then the physical and chemical stability of the samples was tested by XRPD and HPLC.
# At the same time, after the p-toluenesulfonate salt crystal form A-II and crystal form B-III solids were placed at 80° C. for 24 hours, the physical and chemical stability of the samples were tested by XRPD and HPLC.
# [4] = Hygroscopicity by dynamic moisture sorption (DVS); type: physicochemical; conditions: DVS, listed as Phosphate salt crystal form A-V
# Outline: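 Mass change of salt and free-form crystal samples recorded at 25° C over a 0% RH-95% RH-0% RH cycle. Steps were 10% RH (last step 5%) with a dm/dt equilibrium criterion of 0.002%/min.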
compound,measurement,setting,value
"O=C(Nc1ccc(F)cc1)C1(C(=O)Nc2ccc(Oc3ccnc4cc(OCCCN5CCOCC5)c5c(c34)OCCO5)c(F)c2)CC1 [Example 5, N-(3-fluoro-4-((5-(3-morpholinopropoxy)-2,3-dihydro-[1,4]dioxano[2,3-f]quinolin-10-yl)oxy)phenyl)-N-(4-fluorophenyl)cyclopropane-1,1-dicarboxamide]",T/C (relative tumor proliferation rate),"[1]; 7.5 mg/kg oral once a day, day 3",97.1%
same,T/C (relative tumor proliferation rate),"[1]; 7.5 mg/kg oral once a day, day 7",80.6%
same,T/C (relative tumor proliferation rate),"[1]; 7.5 mg/kg oral once a day, day 10",76.3%
same,T/C (relative tumor proliferation rate),"[1]; 7.5 mg/kg oral once a day, day 14",68.2%
same,T/C (relative tumor proliferation rate),"[1]; 7.5 mg/kg oral once a day, day 18",66.5%
same,T/C (relative tumor proliferation rate),"[1]; 7.5 mg/kg oral once a day, day 21",58.8%
same,T/C (relative tumor proliferation rate),"[1]; 15 mg/kg oral once a day, day 3",76.0%
same,T/C (relative tumor proliferation rate),"[1]; 15 mg/kg oral once a day, day 7",49.9%
same,T/C (relative tumor proliferation rate),"[1]; 15 mg/kg oral once a day, day 10",43.8%
same,T/C (relative tumor proliferation rate),"[1]; 15 mg/kg oral once a day, day 14",37.1%
same,T/C (relative tumor proliferation rate),"[1]; 15 mg/kg oral once a day, day 18",33.0%
same,T/C (relative tumor proliferation rate),"[1]; 15 mg/kg oral once a day, day 21",26.2%
same,S (dynamic solubility),"[2]; FaSSIF, 1 hour",0.028
same,pH of the filtrate,"[2]; FaSSIF, 1 hour",5.8
same,S (dynamic solubility),"[2]; FaSSIF, 2 hours",0.030
same,pH of the filtrate,"[2]; FaSSIF, 2 hours",5.8
same,S (dynamic solubility),"[2]; FaSSIF, 4 hours",0.024
same,pH of the filtrate,"[2]; FaSSIF, 4 hours",5.8
same,S (dynamic solubility),"[2]; FaSSIF, 24 hours",0.080
same,pH of the filtrate,"[2]; FaSSIF, 24 hours",5.3
same,S (dynamic solubility),"[2]; FeSSIF, 1 hour",1.5
same,pH of the filtrate,"[2]; FeSSIF, 1 hour",4.9
same,S (dynamic solubility),"[2]; FeSSIF, 2 hours",1.4
same,pH of the filtrate,"[2]; FeSSIF, 2 hours",5.0
same,S (dynamic solubility),"[2]; FeSSIF, 4 hours",1.3
same,pH of the filtrate,"[2]; FeSSIF, 4 hours",5.0
same,S (dynamic solubility),"[2]; FeSSIF, 24 hours",0.20
same,pH of the filtrate,"[2]; FeSSIF, 24 hours",5.0
same,S (dynamic solubility),"[2]; H2O, 1 hour",2.5
same,pH of the filtrate,"[2]; H2O, 1 hour",4.5
same,S (dynamic solubility),"[2]; H2O, 2 hours",2.6
same,pH of the filtrate,"[2]; H2O, 2 hours",4.5
same,S (dynamic solubility),"[2]; H2O, 4 hours",2.4
same,pH of the filtrate,"[2]; H2O, 4 hours",4.5
same,S (dynamic solubility),"[2]; H2O, 24 hours",2.5
same,pH of the filtrate,"[2]; H2O, 24 hours",4.4
same,S (dynamic solubility),"[2]; SGF, 1 hour",6.9
same,pH of the filtrate,"[2]; SGF, 1 hour",2.7
same,S (dynamic solubility),"[2]; SGF, 2 hours",completely dissolved
same,S (dynamic solubility),"[2]; SGF, 4 hours",completely dissolved
same,S (dynamic solubility),"[2]; SGF, 24 hours",6.4
same,pH of the filtrate,"[2]; SGF, 24 hours",2.7
same,Purity,"[3]; 25° C./60% RH, 1 week",99.13 area %
same,Purity,"[3]; 40° C./75% RH, 1 week",99.13 area %
same,Purity,[3]; Starting,99.23 area %
same,Moisture adsorption (25° C./80% RH),[4]; 25° C./80% RH,6.43%
same,Hygroscopicity,[4]; 25° C.,Hygroscopic
